We go through 16 molecules from patent US11524951B2, “2-(2,4,5-substituted-anilino)pyrimidine compounds” (AstraZeneca AB, priority 2011, dated 2022).

Usually IC50 stands for the concentration that inhibits the measured activity by half.

Type in all cases: cell-based
Assay [1] has as its target T1, L858R/T790M EGFR (Homo sapiens, UniProt P00533, L858R/T790M).
T1 construct: Assays to measure cellular phosphorylation of endogenous p-EGFR in cell lysates; endogenous in cells; host or cells: NCI-H1975 (human lung cell line)
Briefly: L858R/T790M EGFR (double mutant) cellular phosphorylation assay. Particulars: NCI-H1975 human lung cells; endogenous p-EGFR in cell lysates by ELISA; 2 h with compound. As to the method:
Assay 2: L858R/T790M EGFR (Double Mutant) Cellular Phosphorylation Assay
The human lung cell lines NCI-H1975 were obtained from the American type Culture Collection. […] Cells were grown in a humidified incubator at 37° C. with 5% CO2.
Assays to measure cellular phosphorylation of endogenous p-EGFR in cell lysates were carried out according to the protocol described in the R&D Systems DuoSet IC Human Phospho-EGF R ELISA (R&D Systems catalogue number #DYC1095).
40 μL of cells were seeded (10000 cells/well) in growth medium in Corning black, clear-bottomed 384-well plates and incubated at 37° C. with 5% CO2 overnight. […] Plates were incubated for a further 2 h and following aspiration of medium, 40 μL 1× lysis buffer was added to each well. Greiner black high bind 384-well plates were coated with capture antibody and then blocked with 3% BSA. Following removal of block, 15 μL of lysate were transferred to the Greiner black high bind 384-well plates and incubated for 2 hours. Following aspiration and washing of the plates with PBS, 20 μL of detection antibody were added and incubated for 2 hours. […] 20 μL QuantaBlu stop solution were added to plates and fluorescence read on an Envision plate reader using
The data obtained with each compound was exported into a suitable software package (such as Origin) to perform curve fitting analysis.
(ELISA stands for enzyme-linked immunosorbent assay.)

Assay [2] concerns the target T2, Exon19 deletion EGFR (Homo sapiens, UniProt P00533, DEL746-750).
T2 construct: Assays to measure cellular phosphorylation of endogenous p-EGFR in cell lysates; endogenous in cells; host or cells: PC9 (human lung cell line)
Briefly: Exon19 deletion EGFR (activating single mutant) cellular phosphorylation assay. The following applies: PC9 human lung cells (Exon 19 deletion EGFR); endogenous p-EGFR in cell lysates by ELISA; 2 h with compound; read-out: Assay 1 (IC50). As for the experimental part:
Assay 1: Exon19 Deletion EGFR (Activating Single Mutant) Cellular Phosphorylation Assay
The human lung cell line PC9 (Exon 19 deletion EGFR) were obtained from the American type Culture Collection. […] Cells were grown in a humidified incubator at 37° C. with 5% CO2. Assays to measure cellular phosphorylation of endogenous p-EGFR in cell lysates were carried out according to the protocol described in the R&D Systems DuoSet IC Human Phospho-EGF R ELISA (R&D Systems catalogue number #DYC1095). 40 μL of cells were seeded (10000 cells/well) in growth medium in Corning black, clear-bottomed 384-well plates and incubated at 37° C. with 5% CO2 overnight. […] Plates were incubated for a further 2 h, then following aspiration of medium, 40 μL 1× lysis buffer was added to each well. Greiner black high bind 384-well plates were coated with capture antibody and then blocked with 3% BSA. Following removal of block, […], of lysate were transferred to the Greiner black high bind 384-well plates and incubated for 2 hours. Following aspiration and washing of the plates with PBS, 20 μL of detection antibody were added and incubated for 2 hours. […] The data obtained with each compound was exported into a suitable software package (such as Origin) to perform curve fitting analysis.

Assay [3] deals with T3, Wild-type EGFR (Homo sapiens, UniProt P00533).
T3 construct: Assays to measure cellular phosphorylation of endogenous p-EGFR in cell lysates; endogenous in cells; host or cells: LoVo (human colon cell line)
Briefly: Wild-type EGFR cellular phosphorylation assay. Particulars: LoVo human colon cells; endogenous p-EGFR in cell lysates by ELISA; 2 h with compound, then stimulated 100 ng/ml for 10 minutes; read-out: Assay 3 (IC50). As to the method: Assay 3: Wild-Type EGFR Cellular Phosphorylation Assay
The human colon cell line LoVo were obtained from the American type Culture Collection. […] Cells were grown in a humidified incubator at 37° C. with 5% CO2. Assays to measure cellular phosphorylation of endogenous p-EGFR in cell lysates were carried out according to the protocol described in the R&D Systems DuoSet IC Human Phospho-EGF R ELISA (R&D Systems catalogue number #DYC1095). 40 μL of cells were seeded (15000 cells/well) in growth medium in Corning black, clear-bottomed 384-well plates and incubated at 37° C. with 5% CO2 overnight. […] Plates were incubated for a further 2 h then stimulated with 100 ng/ml for 10 minutes and following aspiration of medium, 40 μL 1× lysis buffer was added to each well. Greiner black high bind 384-well plates were coated with capture antibody and then blocked with 3% BSA. […] Following aspiration and washing of the plates with PBS, 20 μL of detection antibody were added and incubated for 2 hours. […] The data obtained with each compound was exported into a suitable software package (such as Origin) to perform curve fitting analysis.

Structures are written as SMILES.

T1 sequence (P00533 25-1210 T790M/L858R): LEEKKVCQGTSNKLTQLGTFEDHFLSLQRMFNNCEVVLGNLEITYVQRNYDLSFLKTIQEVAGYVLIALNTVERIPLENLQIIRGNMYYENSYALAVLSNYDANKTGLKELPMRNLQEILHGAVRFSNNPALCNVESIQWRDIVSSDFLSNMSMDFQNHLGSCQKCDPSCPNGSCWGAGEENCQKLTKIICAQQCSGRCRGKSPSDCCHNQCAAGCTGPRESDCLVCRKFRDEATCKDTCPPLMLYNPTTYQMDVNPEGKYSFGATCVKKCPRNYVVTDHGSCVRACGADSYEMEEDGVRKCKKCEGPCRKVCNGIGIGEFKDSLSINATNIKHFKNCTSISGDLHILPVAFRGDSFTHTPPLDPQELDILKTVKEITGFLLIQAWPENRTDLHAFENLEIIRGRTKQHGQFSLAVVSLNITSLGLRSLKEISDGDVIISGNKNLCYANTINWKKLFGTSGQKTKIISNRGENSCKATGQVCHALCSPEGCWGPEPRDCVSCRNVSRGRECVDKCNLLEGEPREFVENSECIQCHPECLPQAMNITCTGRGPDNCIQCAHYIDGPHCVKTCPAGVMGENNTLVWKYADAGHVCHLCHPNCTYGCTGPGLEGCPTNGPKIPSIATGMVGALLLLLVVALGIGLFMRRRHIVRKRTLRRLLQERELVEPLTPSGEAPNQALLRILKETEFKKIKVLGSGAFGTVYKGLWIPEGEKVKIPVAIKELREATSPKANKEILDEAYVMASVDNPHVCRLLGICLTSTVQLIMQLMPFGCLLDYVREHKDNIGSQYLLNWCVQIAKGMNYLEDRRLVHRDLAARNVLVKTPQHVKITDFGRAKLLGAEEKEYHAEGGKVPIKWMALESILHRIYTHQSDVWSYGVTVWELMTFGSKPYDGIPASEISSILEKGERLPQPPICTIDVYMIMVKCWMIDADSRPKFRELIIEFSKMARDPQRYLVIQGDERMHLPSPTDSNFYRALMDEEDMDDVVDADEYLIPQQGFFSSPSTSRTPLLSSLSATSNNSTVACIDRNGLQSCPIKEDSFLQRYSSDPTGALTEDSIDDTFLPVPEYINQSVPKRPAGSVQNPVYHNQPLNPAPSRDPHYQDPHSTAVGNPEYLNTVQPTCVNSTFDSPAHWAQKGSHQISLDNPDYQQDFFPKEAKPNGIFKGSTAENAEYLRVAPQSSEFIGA
T2 sequence (P00533 with tags, fused parts or gaps DEL746-750): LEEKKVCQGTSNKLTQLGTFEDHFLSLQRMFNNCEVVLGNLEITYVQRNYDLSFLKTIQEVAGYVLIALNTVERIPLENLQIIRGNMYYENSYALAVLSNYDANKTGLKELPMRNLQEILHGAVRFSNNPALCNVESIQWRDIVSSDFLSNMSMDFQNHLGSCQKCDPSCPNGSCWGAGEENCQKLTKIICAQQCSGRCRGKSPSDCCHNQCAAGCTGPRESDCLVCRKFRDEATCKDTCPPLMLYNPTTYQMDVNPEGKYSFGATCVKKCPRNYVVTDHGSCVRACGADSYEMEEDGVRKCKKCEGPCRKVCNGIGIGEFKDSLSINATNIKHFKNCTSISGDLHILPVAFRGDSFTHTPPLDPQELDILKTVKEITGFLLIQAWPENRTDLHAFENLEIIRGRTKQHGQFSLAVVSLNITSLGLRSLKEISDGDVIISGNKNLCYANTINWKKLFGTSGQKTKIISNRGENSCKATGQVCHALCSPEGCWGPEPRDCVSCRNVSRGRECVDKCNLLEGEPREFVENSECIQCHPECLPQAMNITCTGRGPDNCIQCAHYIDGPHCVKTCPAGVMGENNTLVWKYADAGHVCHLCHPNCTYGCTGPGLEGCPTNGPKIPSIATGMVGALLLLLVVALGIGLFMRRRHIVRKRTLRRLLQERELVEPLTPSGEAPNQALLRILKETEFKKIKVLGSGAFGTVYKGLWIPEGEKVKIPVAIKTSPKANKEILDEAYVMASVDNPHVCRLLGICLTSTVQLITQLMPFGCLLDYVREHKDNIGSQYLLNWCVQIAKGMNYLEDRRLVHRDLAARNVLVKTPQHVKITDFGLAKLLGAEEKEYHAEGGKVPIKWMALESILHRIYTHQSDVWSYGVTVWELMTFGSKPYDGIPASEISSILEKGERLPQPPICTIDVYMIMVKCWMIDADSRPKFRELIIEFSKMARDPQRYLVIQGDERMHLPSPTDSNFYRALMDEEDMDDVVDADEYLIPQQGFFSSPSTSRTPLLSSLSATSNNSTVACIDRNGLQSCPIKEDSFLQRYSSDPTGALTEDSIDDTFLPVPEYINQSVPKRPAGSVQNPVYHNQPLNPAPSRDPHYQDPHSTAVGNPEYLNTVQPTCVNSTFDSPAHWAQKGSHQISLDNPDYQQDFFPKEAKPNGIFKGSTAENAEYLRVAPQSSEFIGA
T3 sequence (P00533 25-1210): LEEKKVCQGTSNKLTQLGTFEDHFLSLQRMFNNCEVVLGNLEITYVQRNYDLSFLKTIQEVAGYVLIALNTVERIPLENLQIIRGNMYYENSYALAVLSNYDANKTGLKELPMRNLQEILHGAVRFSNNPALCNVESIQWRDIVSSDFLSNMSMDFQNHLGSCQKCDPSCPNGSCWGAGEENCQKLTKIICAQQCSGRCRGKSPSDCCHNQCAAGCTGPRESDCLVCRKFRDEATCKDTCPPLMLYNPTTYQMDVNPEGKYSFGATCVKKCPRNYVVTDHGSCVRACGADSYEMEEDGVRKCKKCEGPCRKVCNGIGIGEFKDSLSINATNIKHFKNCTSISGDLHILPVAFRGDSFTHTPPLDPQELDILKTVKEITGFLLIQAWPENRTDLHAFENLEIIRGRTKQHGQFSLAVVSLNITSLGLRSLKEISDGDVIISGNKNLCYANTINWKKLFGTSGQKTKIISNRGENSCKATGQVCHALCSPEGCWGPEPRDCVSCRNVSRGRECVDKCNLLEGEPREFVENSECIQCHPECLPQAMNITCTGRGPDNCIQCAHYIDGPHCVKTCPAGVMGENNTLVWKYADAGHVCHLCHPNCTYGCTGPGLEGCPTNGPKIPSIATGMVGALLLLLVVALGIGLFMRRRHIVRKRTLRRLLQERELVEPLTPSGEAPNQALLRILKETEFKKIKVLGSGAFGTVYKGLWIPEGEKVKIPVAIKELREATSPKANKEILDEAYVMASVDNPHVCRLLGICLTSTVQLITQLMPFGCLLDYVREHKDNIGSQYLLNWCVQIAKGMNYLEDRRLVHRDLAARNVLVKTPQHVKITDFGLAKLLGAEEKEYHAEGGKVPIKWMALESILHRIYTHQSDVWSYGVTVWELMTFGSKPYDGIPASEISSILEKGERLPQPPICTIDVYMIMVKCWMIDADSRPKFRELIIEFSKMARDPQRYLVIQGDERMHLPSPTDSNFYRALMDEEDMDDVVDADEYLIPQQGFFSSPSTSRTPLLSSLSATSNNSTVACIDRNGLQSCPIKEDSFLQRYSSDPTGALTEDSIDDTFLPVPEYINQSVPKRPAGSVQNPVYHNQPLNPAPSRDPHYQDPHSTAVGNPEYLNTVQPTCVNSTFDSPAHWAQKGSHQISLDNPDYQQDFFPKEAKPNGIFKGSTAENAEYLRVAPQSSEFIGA

As to `C=CC(=O)Nc1cc(Nc2ncc(Cl)c(-c3cnn4ccccc34)n2)c(OC)cc1N1CC[C@@H]2CN(C)C[C@@H]21` [Example 7, N-{2-[(3aR,6aR)-5-Methyl-2,3,3a,4,6,6a-hexahydropyrrolo[3,2-c]pyrrol-1-yl]-5-[(5-chloro-4-pyrazolo[1,5-a]pyridin-3-ylpyrimidin-2-yl)amino]-4-methoxyphenyl}prop-2-enamide], the IC50 in assay [1] is 0.682 nM; in assay [2], 3.26 nM; in assay [3], 161 nM.
With `C=CC(=O)Nc1cc(Nc2ncc(Cl)c(-c3cn(C)c4ccccc34)n2)c(OC)cc1N(C)CCN(C)C` [Example 26, N-(5-{[5-Chloro-4-(1-methylindol-3-yl)pyrimidin-2-yl]amino}-2-{2-dimethylaminoethyl-methylamino}-4-methoxyphenyl)prop-2-enamide], the figures for the IC50 in assay [1], in assay [2] and in assay [3] were 1.93 nM, 2.29 nM and 58.3 nM, respectively.
For `C=CC(=O)Nc1cc(Nc2ncc(C#N)c(-c3cn(C)c4ccccc34)n2)c(OC)cc1N1CCN(C)CC1` [Example 23, N-(5-{[5-Cyano-4-(1-methylindol-3-yl)pyrimidin-2-yl]amino}-4-methoxy-2-{4-methylpiperazin-1-yl}phenyl)prop-2-enamide], the IC50 in assay [1] was determined as 17.6 nM; in assay [2], 16.9 nM; in assay [3], 3020 nM.
For the molecule `C=CC(=O)Nc1cc(Nc2ncc(Cl)c(-c3cnn4ccccc34)n2)c(OC)cc1N(C)CCN1CCOCC1` [Example 31, N-{5-[(5-Chloro-4-pyrazolo[1,5-a]pyridin-3-ylpyrimidin-2-yl)amino]-4-methoxy-2-[methyl-(2-morpholin-4-ylethyl)amino]phenyl}prop-2-enamide], the IC50 was 7.34 nM in assay [1], 37.5 nM in assay [2] and 2510 nM in assay [3].
For `C=CC(=O)Nc1cc(Nc2nccc(-c3c[nH]c4ccccc34)n2)c(OC)cc1N(C)CCN(C)C` [Example 59, N-(2-[2-Dimethylaminoethyl-methylamino]-5-{[4-(1H-indol-3-yl)pyrimidin-2-yl]amino}-4-methoxyphenyl)prop-2-enamide], in that order: 3.02 nM, 2.27 nM and 28.2 nM.
As to `C=CC(=O)Nc1cc(Nc2nccc(-c3c[nH]c4ccccc34)n2)c(OC)cc1N1CCN(C)CC1` [Example 15, N-(5-{[4-(1H-Indol-3-yl)pyrimidin-2-yl]amino}-4-methoxy-2-{4-methylpiperazin-1-yl}phenyl)prop-2-enamide], the results for the IC50 in assay [1], in assay [2] and in assay [3] were 55.2 nM, 14 nM and 1070 nM, respectively.
As to `C=CC(=O)Nc1cc(Nc2ncc(Cl)c(-c3cnn4ccccc34)n2)c(OC)cc1N(C)CCN(C)C` [Example 6, N-{5-[(5-Chloro-4-pyrazolo[1,5-a]pyridin-3-ylpyrimidin-2-yl)amino]-2-[2-dimethylaminoethyl-methylamino]-4-methoxyphenyl}prop-2-enamide], the IC50 turned out to be 0.669 nM in assay [1], 2.18 nM in assay [2] and 196 nM in assay [3].
Taken in the same sequence, the figures for `C=CC(=O)Nc1cc(Nc2ncc(Cl)c(-c3cnn4ccccc34)n2)c(OC)cc1N1CC[C@H](N(C)C)C1` [Example 12, N-{5-[(5-Chloro-4-pyrazolo[1,5-a]pyridin-3-ylpyrimidin-2-yl)amino]-2-[(3S)-3-dimethylaminopyrrolidin-1-yl]-4-methoxyphenyl}prop-2-enamide] were 5.82 nM, 36.1 nM and 1390 nM.
Take `C=CC(=O)Nc1cc(Nc2nccc(-c3cnn4ccccc34)n2)c(OC)cc1C1=CCN(C)CC1` [Example 51, N-{4-Methoxy-2-[1-methyl-3,6-dihydro-2H-pyridin-4-yl]-5-[(4-pyrazolo[1,5-a]pyridin-3-ylpyrimidin-2-yl)amino]phenyl}prop-2-enamide]: the IC50 in assay [1] is 7.71 nM; in assay [2], 13 nM; in assay [3], 462 nM.
As to `C=CC(=O)Nc1cc(Nc2ncc(C#N)c(-c3cnn4ccccc34)n2)c(OC)cc1N(C)CCN(C)C` [Example 39, N-{5-[(5-Cyano-4-pyrazolo[1,5-a]pyridin-3-ylpyrimidin-2-yl)amino]-2-[2-dimethylaminoethyl-methylamino]-4-methoxyphenyl}prop-2-enamide], the figures for the IC50 in assay [1], in assay [2] and in assay [3] were 1.01 nM, 2.34 nM and 248 nM, respectively.
For the molecule `C=CC(=O)Nc1cc(Nc2ncc(C)c(-c3cn(C)c4ccccc34)n2)c(OC)cc1N(C)CCN(C)C` [Example 19, N-(2-{2-Dimethylaminoethyl-methylamino}-4-methoxy-5-{[5-methyl-4-(1-methylindol-3-yl)pyrimidin-2-yl]amino}phenyl)prop-2-enamide], the figures for the 50% inhibitory concentration (IC50) in assay [1], in assay [2] and in assay [3] were 1.46 nM, 2.15 nM and 70.8 nM, respectively.
On to `C=CC(=O)Nc1cc(Nc2ncc(Cl)c(-c3c[nH]c4ccccc34)n2)c(OC)cc1C1=CCN(C)CC1` [Example 2, N-(5-{[5-Chloro-4-(1H-indol-3-yl)pyrimidin-2-yl]amino}-4-methoxy-2-[1-methyl-3,6-dihydro-2H-pyridin-4-yl]phenyl)prop-2-enamide], for which the IC50 in assay [1] worked out at 1.5 nM; in assay [2], 1.29 nM; in assay [3], 41.2 nM.
Take `C=CC(=O)Nc1cc(Nc2nccc(-c3cnn4c3CCCC4)n2)c(OC)cc1N1CC[C@@H]2CN(C)C[C@@H]21` [Example 43, N-(2-{(3aR,6aR)-5-Methyl-2,3,3a,4,6,6a-hexahydropyrrolo[3,4-b]pyrrol-1-yl}-4-methoxy-5-{[4-(4,5,6,7-tetrahydropyrazolo[1,5-a]pyridin-3-yl)pyrimidin-2-yl]amino}phenyl)prop-2-enamide]: the IC50 is 10.6 nM in assay [1], 18.2 nM in assay [2] and 1340 nM in assay [3].
With `C=CC(=O)Nc1cc(Nc2ncc(Cl)c(-c3cnn4ccccc34)n2)c(OC)cc1N(C)CCN1CCN(C)CC1` [Example 32, N-(5-{[5-Chloro-4-pyrazolo[1,5-a]pyridin-3-ylpyrimidin-2-yl]amino}-4-methoxy-2-{methyl-[2-(4-methylpiperazin-1-yl)ethyl]amino}phenyl)prop-2-enamide], the IC50 is 23.8 nM in assay [1], 138 nM in assay [2] and 10500 nM in assay [3].
Regarding `C=CC(=O)Nc1cc(Nc2nccc(-c3cnn4c3CCCC4)n2)c(OC)cc1N1CC2(CCCN2C)C1` [Example 47, N-(4-Methoxy-2-{8-methyl-2,8-diazaspiro[3.4]octan-2-yl}-5-{[4-(4,5,6,7-tetrahydropyrazolo[1,5-a]pyridin-3-yl)pyrimidin-2-yl]amino}phenyl)prop-2-enamide], the IC50 came to 119 nM in assay [1], 194 nM in assay [2] and 15400 nM in assay [3].
For `C=CC(=O)Nc1cc(Nc2nccc(-c3cn(C)c4ccccc34)n2)c(OC)cc1N1CC(N(C)C)C1` [Example 36, N-(2-{3-Dimethylaminoazetidin-1-yl}-4-methoxy-5-{[4-(1-methylindol-3-yl)pyrimidin-2-yl]amino}phenyl)prop-2-enamide], in that order: 32.7 nM, 43.3 nM and 1050 nM.
